Results: patent publication US8674118B2, “Compounds and methods for the treatment or prevention of flavivirus infections” (priority 2005, dated 2014)

Each compound was assayed on HCV RNA replication (replicon cell lines Huh-7, 5.2 and ET) (assay: Cell-Based Luciferase Reporter HCV RNA Replication Assay). Details: Hepatitis C virus, Huh-7, 96 h, Huh-7, 5.2 or ET replicon cells, luciferase counts after 4 days incubation; read-out: IC50.

`CC1CC=C(c2cc(N(C(=O)[C@H]3CC[C@H](C)CC3)[C@H]3CC[C@H](O)CC3)c(C(=O)O)s2)CC1` (relative stereo) [Compound 4, 3-[(trans-4-Hydroxy-cyclohexyl)-(trans-4-methyl-cyclohexanecarbonyl)-amino]-5-(4-methyl-cyclohex-1-enyl)-thiophene-2-carboxylic acid] was tested. Which IC50 did it give?
The IC50 was < 5 µM.

How did the IC50 turn out when `C[C@H]1CC[C@H](C(=O)N(c2cc(C3=CCCCC3)sc2C(=O)O)[C@H]2CC[C@@H](O)CC2)CC1` [Compound 9, 5-Cyclohex-1-enyl-3-[(cis-4-hydroxy-cyclohexyl)-(trans-4-methyl-cyclohexanecarbonyl)-amino]-thiophene-2-carboxylic acid] was run?
Its IC50 is < 5 µM.

For `COC1CCC(N(C(=O)C2CCC(C)CC2)c2cc(C3CCC(=O)CC3)sc2C(=O)O)CC1` (stereo not drawn) [Compound 113, 3-[(4-trans-methoxy-cyclohexyl)-(4-trans-methyl-cyclohexanecarbonyl)-amino]-5-(4-oxo-cyclohexyl)-thiophene-2-carboxylic acid], which IC50 is on record?
The IC50 was < 5 µM.

With `CC1CC=C(c2cc(N(C(=O)[C@H]3CC[C@H](C)CC3)C(C)C)c(C(=O)O)s2)CC1` (relative stereo) [Compound 43, 3-[isopropyl-(trans-4-methyl-cyclohexanecarbonyl)-amino]-5-(4-methyl-cyclohex-1-enyl)-thiophene-2-carboxylic acid] as the compound, how does the IC50 read?
Its IC50 is < 5 µM.

Which IC50 does the source give for `C[C@H]1CC[C@H](C(=O)N(c2cc(C3=CCCCC3)sc2C(=O)O)C2CCN(C=O)CC2)CC1` [Compound 98, 5-cyclohex-1-enyl-3-[(1-formyl-piperidin-4-yl)-(trans-4-methyl-cyclohexanecarbonyl)-amino]-thiophene-2-carboxylic acid] here?
The IC50 was < 5 µM.

With `CC(C)N(c1cc(C2=CCCCC2)sc1C(=O)O)C(=O)[C@H]1CC[C@H](C)CC1` [Compound 7, 5-Cyclohex-1-enyl-3-[isopropyl-(trans-4-methyl-cyclohexanecarbonyl)-amino]-thiophene-2-carboxylic acid] as the compound, how does the IC50 read?
Its IC50 is < 5 µM.

For `C[C@H]1CC[C@H](C(=O)N(c2cc(C3=CCC(Oc4ccccc4)CC3)sc2C(=O)O)[C@H]2CC[C@H](O)CC2)CC1` (relative stereo) [Compound 33, 3-[(trans-4-hydroxy-cyclohexyl)-(trans-4-methyl-cyclohexanecarbonyl)-amino]-5-(4-phenoxy-cyclohex-1-enyl)-thiophene-2-carboxylic acid], which IC50 is on record?
The IC50 was < 5 µM.

With `C[C@H]1CC[C@H](C(=O)N(c2cc(C3=CCCCC3)sc2C(=O)O)C2CCCCC2)CC1` [Compound 11, 5-Cyclohex-1-enyl-3-[cyclohexyl-(trans-4-methyl-cyclohexanecarbonyl)-amino]-thiophene-2-carboxylic acid] as the compound, how does the IC50 read?
Its IC50 is < 5 µM.

With `CC1(C)CCC(c2cc(N(C(=O)[C@H]3CC[C@H](C)CC3)[C@H]3CC[C@H](O)CC3)c(C(=O)O)s2)CC1` [Compound 64, 5-(4,4-dimethyl-cyclohexyl)-3-[(trans-4-hydroxy-cyclohexyl)-(trans-4-methyl-cyclohexanecarbonyl)-amino]-thiophene-2-carboxylic acid] as the compound, how does the IC50 read?
Its IC50 is < 5 µM.

How did the IC50 turn out when `CCC(=O)N(C)C1CCC(N(c2cc(C3=CCCCC3)sc2C(=O)O)C(=O)[C@H]2CC[C@H](C)CC2)CC1` (relative stereo) [Compound 140, 5-cyclohex-1-enyl-3-{(trans-4-methyl-cyclohexanecarbonyl)-[4-(methyl-propionyl-amino)-cyclohexyl]-amino}-thiophene-2-carboxylic acid] was run?
Its IC50 is < 5 µM.

Which IC50 does the source give for `C[C@H]1CC[C@H](C(=O)N(c2cc(C3=CCCCCC3)sc2C(=O)O)[C@H]2CC[C@H](O)CC2)CC1` [Compound 5, 5-Cyclohept-1-enyl-3-[(trans-4-hydroxy-cyclohexyl)-(trans-4-methyl-cyclohexanecarbonyl)-amino]-thiophene-2-carboxylic acid] here?
The IC50 was < 5 µM.

`CCN1CC2(CCC(N(C(=O)C3CCC(C)CC3)c3cc(C4=CCCCC4)sc3C(=O)O)CC2)CC1=O` (stereo not drawn) [Compound 129, 5-cyclohex-1-enyl-3-[trans(2-ethyl-33-oxo-2-aza-spiro[4.5]dec-8-yl)-(trans-4-methylcyclohexanecarbonyl)-amino]-thiophene-2-carboxylic acid] was tested. Which IC50 did it give?
Its IC50 is < 5 µM.

With `CC1CCC(C(=O)N(c2cc(C3=CCCCC3)sc2C(=O)O)C2CCC(n3ccnn3)CC2)CC1` (stereo not drawn) [Compound 104, 5-cyclohex-1-enyl-3-[(trans-4-methyl-cyclohexanecarbonyl)-(cos-4-[1,2,3]triazol-1-yl-cyclohexyl)-amino]-thiophene-2-carboxylic acid] as the compound, how does the IC50 read?
Its IC50 is < 5 µM.

Which IC50 does the source give for `C[C@H]1CC[C@H](C(=O)N(c2ccc3c(c2)OCO3)c2cc(C3=CCCCC3)sc2C(=O)O)CC1` [Compound 136, 3-[benzo[1,3]dioxol-5-yl-(trans-4-methyl-cyclohexanecarbonyl)-amino]-5-cyclohex-1-enyl-thiophene-2-carboxylic acid] here?
Its IC50 is < 5 µM.

With `CC1CCC(C(=O)N(c2cc(C3=CCCCC3)sc2C(=O)O)C2CCC3C(=O)N(C)C(=O)C3C2)CC1` (stereo not drawn) [Compound 72, RS-5-cyclohex-1-enyl-3-[(trans-methyl-cyclohexanecarbonyl)-(2-methyl-1,3-dioxo-octahydro-isoindol-5-yl)-amino]-thiophene-2-carboxylic acid] as the compound, how does the IC50 read?
Its IC50 is < 5 µM.

`CC1CCC(C(=O)N(c2cc(C3=CCCCC3)sc2C(=O)O)C2CCN(c3ncccn3)CC2)CC1` (stereo not drawn) [Compound 103, 5-cyclohex-1-enyl-3-[(trans, 4-methyl-cyclohexanecarbonyl)-(1-pyrimidin-2-yl-piperidin-4-yl)-amino]-thiophene-2-carboxylic acid] was tested. Which IC50 did it give?
Its IC50 is < 5 µM.

With `CC1=CCCCC1c1cc(N(C(=O)C2CCC(C)CC2)C2CCC(=O)CC2)c(C(=O)O)s1` (stereo not drawn) [Compound 58, RS-3-[(4-trans-methyl-cyclohexanecarbonyl)-(4-oxo-cyclohexyl)-amino]-5-(2-methyl-cyclohex-2-enyl)-thiophene-2-carboxylic acid] as the compound, how does the IC50 read?
Its IC50 is 5 to 25 µM.

For `CN1C(=O)N(C)C2(CCC(N(c3cc(C4=CCCCC4)sc3C(=O)O)C(=O)[C@H]3CC[C@H](C)CC3)CC2)C1=O` (relative stereo) [Compound 32, 5-cyclohex-1-enyl-3-[(1,3-dimethyl-2,4-dioxo-1,3-diaza-spiro[4.5]dec-8-yl)-(trans-4-methyl-cyclohexanecarbonyl)-amino]-thiophene-2-carboxylic acid], which IC50 is on record?
The IC50 was < 5 µM.

Which IC50 does the source give for `C[C@H]1CC[C@H](C(=O)N(c2ccccc2)c2cc(C3=CCCCC3)sc2C(=O)O)CC1` [Compound 10, 5-Cyclohex-1-enyl-3-[(trans-4-methyl-cyclohexanecarbonyl)-phenyl-amino]-thiophene-2-carboxylic acid] here?
The IC50 was < 5 µM.

With `COCOC1CCC(N(C(=O)C2CCC(C)CC2)c2cc(C3CCC(C)(C)CC3)sc2C(=O)O)CC1` (stereo not drawn) [Compound 116, 5-(4,4-dimethyl-cyclohexyl)-3-[(4-trans-methoxymethoxy-cyclohexyl)-(4-trans-methyl-cyclohexanecarbonyl)-amino]-thiophene-2-carboxylic acid] as the compound, how does the IC50 read?
Its IC50 is < 5 µM.

For `C[C@H]1CC[C@H](C(=O)N(c2cc(C3=CCCCC3)sc2C(=O)O)C2CCOCC2)CC1` [Compound 29, 5-cyclohex-1-enyl-3-[(trans-4-methyl-cyclohexanecarbonyl)-(tetrahydro-pyran-4-yl)-amino]-thiophene-2-carboxylic acid], which IC50 is on record?
Its IC50 is < 5 µM.

Which IC50 does the source give for `COC1CCC(N(C(=O)C2CCC(C)CC2)c2cc(C3CCC(F)CC3)sc2C(=O)O)CC1` (stereo not drawn) [Compound 137, 5-(4-ciz-trans-fluoro-cyclohexyl)-3-[(4-trans-methoxy-cyclohexyl)-(4-trans-methyl-cyclohexanecarbonyl)-amino]-thiophene-2-carboxylic acid] here?
The IC50 was < 5 µM.

Which IC50 does the source give for `COCC1CCC(N(C(=O)C2CCC(C)CC2)c2cc(C3=CCCCC3)sc2C(=O)O)CC1` (mixture of isomers) [Compound 126, 5-cyclohex-1-enyl-3-[(4-cis/trans-methoxymethyl-cyclohexyl)-(4-trans-methyl-cyclohexanecarbonyl)-amino]-thiophene-2-carboxylic acid] here?
The IC50 was < 5 µM.

For `CC1CCC(C(=O)N(c2cc(C3=CCCCC3)sc2C(=O)O)C2CCN3C(=O)CCC3C2)CC1` (stereo not drawn) [Compound 87, RS-5-cyclohex-1-enyl-3-[(4-trans-methyl-cyclohexanecarbonyl)-(3-oxo-octahydro-indolizin-7-yl)-amino]-thiophene-2-carboxylic acid], which IC50 is on record?
Its IC50 is < 5 µM.

`CC1CCC(C(=O)N(c2cc(C3=CCCCCC3)sc2C(=O)O)C2CCCCC2)CC1` (stereo not drawn) [Compound 46, 5-cyclohept-1-enyl-3-[cyclohexyl-(4-trans-methyl-cyclohexanecarbonyl)-amino]-thiophene-2-carboxylic acid] was tested. Which IC50 did it give?
Its IC50 is < 5 µM.

For `CC1CCC(C(=O)N(c2cc(C3=CCCCC3)sc2C(=O)O)C2CCN(c3ccccc3)CC2)CC1` (stereo not drawn) [Compound 127, 5-cyclohex-1-enyl-3-[(trams, 4-methyl-cyclohexanecarbonyl)-(1-phenyl-piperidin-4-yl)-amino]-thiophene-2-carboxylic acid], which IC50 is on record?
Its IC50 is < 5 µM.

With `COC1CCC(N(C(=O)C2CCC(C)CC2)c2cc(C3CC=C(F)CC3)sc2C(=O)O)CC1` (stereo not drawn) [Compound 123, RS-5-(4-fluoro-cyclohex-3-enyl)-3-[(4-trans-methoxy-cyclohexyl)-(4-trans-methyl-cyclohexanecarbonyl)-amino]-thiophene-2-carboxylic acid] as the compound, how does the IC50 read?
Its IC50 is < 5 µM.

Same assay, conditions: Huh-7, 5.2 or ET replicon cells, luciferase counts after 4 days incubation; read-out: IC50

With `CC1CCC(C(=O)N(c2cc(C3=CCCCC3)sc2C(=O)O)C2CCC(C)(C#N)CC2)CC1` (stereo not drawn) [Compound 106, 3-[(trans-4-cyano-4-methyl-cyclohexyl)-(trans-4-methylcyclohexanecarbonyl)-amino]-5-cyclohex-1-enyl-thiophene-2-carboxylic acid] as the compound, how does the IC50 read?
The IC50 was < 5 µM.

How did the IC50 turn out when `CC1CCC(C(=O)N(c2cc(C3=CCCC(C)C3)sc2C(=O)O)C2CCC(O)CC2)CC1` (stereo not drawn) [Compound 61, RS-3-[(4-trans-hydroxy-cyclohexyl)-(4-trans-methyl-cyclohexanecarbonyl)-amino]-5-(5-methyl-cyclohex-1-enyl)-thiophene-2-carboxylic acid] was run?
Its IC50 is < 5 µM.

Which IC50 does the source give for `CCN1CC2(CCC(N(C(=O)C3CCC(C)CC3)c3cc(C4=CCCCC4)sc3C(=O)O)CC2)CC1=O` (stereo not drawn) [Compound 130, 5-cyclohex-1-enyl-3-[cis(2-ethyl-3-oxo-2-aza-spiro[4.5]dec-8-yl)-(trans-4-methylcyclohexanecarbonyl)-amino]-thiophene-2-carboxylic acid] here?
Its IC50 is < 5 µM.
